For one assay, the system named is K-562 (leukemia). Description: NCI-60 single dose screen, K-562. The format is cell-based. Particulars: Homo sapiens, K562, read-out: percent growth inhibition.
The next assay deals with HL60(TB) (leukemia). Briefly: NCI-60 single dose screen, HL60. Particulars: Homo sapiens, HL-60, read-out: percent growth inhibition. The class given is cell-based.

For `Cc1cc(=O)[nH]c(=O)n1Cc1cn(-c2c3ccccc3nc3ccccc23)nn1` [Compound 8, 1-((1-(Acridin-9-yl)-1H-1,2,3-triazol-4-yl)methyl)-6-methylpyrimidine-2,4(1H,3H)-dione], the inhibition (in general, the percentage by which the read-out fell short of the control) at 10 µM amounted to 83.7% in the assay with K-562 (leukemia) and 92.9% in the assay with HL60(TB) (leukemia).

(Values after publication PMC8757608 (Journal of Enzyme Inhibition and Medicinal Chemistry, 2022).)
